Test results: patent publication US20110195900A1, “PEPTIDIC PTH RECEPTOR AGONISTS” (FERRING B.V., priority 2008, published 2011)
Where two headings read alike, the source gives them in different places. Non-standard residues stand in square brackets, D forms with d. Residues, ends and D or L forms follow the SMILES beside them. 1Nal = N[C@@H](Cc1cccc2ccccc12)C(=O)O; 2Nal = N[C@@H](Cc1ccc2ccccc2c1)C(=O)O; β3hI = CC[C@H](C)[C@H](N)CC(=O)O; β3hR = N=C(N)NCCC[C@H](N)CC(=O)O; β3hE = N[C@@H](CCC(=O)O)CC(=O)O; hSer = N[C@@H](CCO)C(=O)O; Nle = CCCC[C@H](N)C(=O)O; Aib = CC(C)(N)C(=O)O; βAla = NCCC(=O)O

Target: T1, human PTH-1 receptor (Homo sapiens, UniProt Q03431)
T1 construct: expressed in transfected cells; host or cells: HEK-293
T1 sequence (Q03431 27-593): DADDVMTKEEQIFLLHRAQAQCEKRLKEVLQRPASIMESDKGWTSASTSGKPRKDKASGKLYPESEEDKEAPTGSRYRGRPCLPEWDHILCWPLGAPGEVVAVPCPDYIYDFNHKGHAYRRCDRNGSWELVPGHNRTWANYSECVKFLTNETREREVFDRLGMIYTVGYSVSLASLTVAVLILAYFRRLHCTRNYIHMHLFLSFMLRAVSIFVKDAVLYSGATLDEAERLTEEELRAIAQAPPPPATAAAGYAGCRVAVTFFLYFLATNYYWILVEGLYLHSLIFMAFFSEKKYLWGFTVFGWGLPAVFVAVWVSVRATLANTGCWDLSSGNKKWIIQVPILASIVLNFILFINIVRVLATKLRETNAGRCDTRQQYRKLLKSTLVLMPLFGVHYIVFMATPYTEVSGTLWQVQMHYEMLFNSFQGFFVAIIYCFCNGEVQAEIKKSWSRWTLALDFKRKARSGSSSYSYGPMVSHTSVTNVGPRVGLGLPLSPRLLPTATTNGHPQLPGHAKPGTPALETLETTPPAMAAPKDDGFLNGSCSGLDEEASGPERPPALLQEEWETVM
Test: Reporter gene assay (CRE-luciferase) for agonist activity in transiently transfected HEK-293 cells
Format: cell-based
Settings: for hPTHR-2/hPTHR-1 / Selectivity hPTHR-2/hPTHR-1: ratio of EC50 values; for hPTHR-2/hPTHR-1: selectivity for hPTH-1 receptor over hPTH-2 receptor
Experimental: Agonist activity of compounds on the human PTH-1 receptor was determined in a reporter gene assay by transiently transfecting HEK-293 cells with plasmids encoding human PTH-1 receptor under control of the SV40 promoter and a luciferase reporter gene under control of cAMP responsive elements (CRE). See Himmler et al, J. Recept. Res. 13 (1993) 79-94, for further guidance on this assay. Transfected cells were exposed to serial dilutions of compounds for 4-5 hours followed by lysis of cells, determination of luciferase activity, and determination of compound efficacies and EC50 values through non-linear regression.
PTH (1-34) was used as an internal control in each experiment and compounds were tested in at least three independent experiments. To determine selectivity, compounds were tested in luciferase-based transcriptional reporter gene assays expressing the human PTH-2 receptor.

SMILES | EC50 | hPTHR-2/hPTHR-1 (Table 3) | EC50 (Table 4 comparison data, HEK-293 cells, CRE-luciferase, read-out: hPTHR-1 EC50) | Selectivity hPTHR-2/hPTHR-1 (Table 4 comparison data) | selectivity for the hPTH-1 receptor over the hPTH-2 receptor (Table 3)
CCCC[C@H](NC(=O)[C@H](CC(C)C)NC(=O)[C@H](CCC(N)=O)NC(=O)[C@@H](NC(=O)[C@H](CCC(=O)O)NC(=O)[C@H](CO)NC(=O)[C@@H](NC(=O)C(C)(C)N)C(C)C)[C@@H](C)CC)C(=O)N[C@@H](Cc1c[nH]cn1)C(=O)N[C@@H](CO)C(=O)N[C@@H](CC(C)C)C(=O)NCC(=O)N[C@@H](CCCCN)C(=O)N[C@@H](Cc1c[nH]cn1)C(=O)N[C@@H](CC(C)C)C(=O)N[C@@H](CCCCN)C(=O)N[C@@H](CO)C(=O)N[C@H](CC(=O)N[C@@H](CCC(=O)O)C(=O)N[C@@H](CCCNC(=N)N)C(=O)N[C@H](C(=O)N[C@@H](CCC(=O)O)C(=O)N[C@@H](Cc1cccc2ccccc12)C(=O)N[C@@H](CC(C)C)C(=O)N[C@@H](CCCNC(=N)N)C(=O)N[C@@H](CCCCN)C(=O)N[C@@H](CC(C)C)C(=O)N[C@@H](CC(C)C)C(=O)N[C@@H](CCC(N)=O)C(=O)N[C@@H](CCCNC(=N)N)C(=O)N[C@H](C(=O)N[C@@H](Cc1c[nH]cn1)C(=O)N[C@@H](CCC(=O)O)C(=O)N[C@@H](CCC(=O)O)C(N)=O)C(C)C)C(C)C)[C@@H](C)CC [SEQ ID NO: 4, [Aib^1, Nle^8, Ser^10, Lys^16, β-hIle^18,1-Nal^23, Leu^27, Arg^30, Glu^33, Glu^34] hPTH (1-34)-NH2] (H-[Aib]VSEIQL[Nle]HSLGKHLKS[β3hI]ERVE[1Nal]LRKLLQRVHEE-NH2) | 40 pM | 110 |  |  | 
CCCC[C@H](NC(=O)[C@H](CO)NC(=O)[C@H](CC(N)=O)NC(=O)[C@H](CC(C)C)NC(=O)[C@H](Cc1c[nH]cn1)NC(=O)[C@H](CCCCN)NC(=O)CNC(=O)[C@H](CC(C)C)NC(=O)[C@H](CC(N)=O)NC(=O)[C@H](Cc1c[nH]cn1)NC(=O)[C@H](CCCC)NC(=O)[C@H](CC(C)C)NC(=O)[C@H](CCC(N)=O)NC(=O)[C@@H](NC(=O)[C@H](CCC(=O)O)NC(=O)[C@H](CO)NC(=O)[C@@H](NC(=O)[C@@H](N)CO)C(C)C)[C@@H](C)CC)C(=O)N[C@@H](CCC(=O)O)CC(=O)N[C@@H](CCCNC(=N)N)C(=O)N[C@H](C(=O)N[C@@H](CCC(=O)O)C(=O)N[C@@H](Cc1cccc2ccccc12)C(=O)N[C@@H](CC(C)C)C(=O)N[C@@H](CCCNC(=N)N)C(=O)N[C@@H](CCCCN)C(=O)N[C@@H](CC(C)C)C(=O)N[C@@H](CC(C)C)C(=O)N[C@@H](CCC(N)=O)C(=O)N[C@@H](CC(=O)O)C(=O)N[C@H](C(=O)N[C@@H](Cc1c[nH]cn1)C(=O)N[C@@H](CC(N)=O)C(=O)N[C@@H](Cc1ccccc1)C(N)=O)C(C)C)C(C)C [SEQ ID NO: 20, [Nle^8,18, β-hGlu^19,1-Nal^23, Leu^27] hPTH (1-34)-NH2] (H-SVSEIQL[Nle]HNLGKHLNS[Nle][β3hE]RVE[1Nal]LRKLLQDVHNF-NH2; N-terminus assumed) |  | 91 |  |  | 
CCCC[C@H](NC(=O)[C@H](CC(C)C)NC(=O)[C@H](CCC(N)=O)NC(=O)[C@@H](NC(=O)[C@H](CCC(=O)O)NC(=O)[C@H](CO)NC(=O)[C@@H](NC(=O)[C@@H](N)CO)C(C)C)[C@@H](C)CC)C(=O)N[C@@H](Cc1c[nH]cn1)C(=O)N[C@@H](CC(N)=O)C(=O)N[C@@H](CC(C)C)C(=O)NCC(=O)N[C@@H](CCCCN)C(=O)N[C@@H](Cc1c[nH]cn1)C(=O)N[C@@H](CC(C)C)C(=O)N[C@@H](CC(N)=O)C(=O)N[C@@H](CO)C(=O)N[C@H](CC(=O)N[C@@H](CCC(=O)O)C(=O)N[C@@H](CCCNC(=N)N)C(=O)N[C@H](C(=O)N[C@@H](CCC(=O)O)C(=O)N[C@@H](Cc1ccc2ccccc2c1)C(=O)N[C@@H](CC(C)C)C(=O)N[C@@H](CCCNC(=N)N)C(=O)N[C@@H](CCCCN)C(=O)N[C@@H](CCCCN)C(=O)N[C@@H](CC(C)C)C(=O)N[C@@H](CCC(N)=O)C(=O)N[C@@H](CC(=O)O)C(=O)N[C@H](C(=O)N[C@@H](Cc1c[nH]cn1)C(=O)N[C@@H](CC(N)=O)C(=O)N[C@@H](Cc1ccccc1)C(N)=O)C(C)C)C(C)C)[C@@H](C)CC [SEQ ID NO: 53, [Nle^8, β-hIle^18,2-Nal^23] hPTH (1-34)-NH2] (H-SVSEIQL[Nle]HNLGKHLNS[β3hI]ERVE[2Nal]LRKKLQDVHNF-NH2) |  |  | 250 pM | 170 | 
CCCC[C@H](NC(=O)[C@H](CC(C)C)NC(=O)[C@H](CCC(N)=O)NC(=O)[C@@H](NC(=O)[C@H](CCC(=O)O)NC(=O)[C@H](CO)NC(=O)[C@@H](NC(=O)C(C)(C)N)C(C)C)[C@@H](C)CC)C(=O)N[C@@H](Cc1c[nH]cn1)C(=O)N[C@@H](CC(N)=O)C(=O)N[C@@H](CC(C)C)C(=O)NCC(=O)N[C@@H](CCCCN)C(=O)N[C@@H](Cc1c[nH]cn1)C(=O)N[C@@H](CC(C)C)C(=O)N[C@@H](CC(N)=O)C(=O)NCCC(=O)N[C@@H](CCOC)C(=O)N[C@@H](CCC(=O)O)C(=O)N[C@@H](CCCNC(=N)N)C(=O)N[C@H](C(=O)N[C@@H](CCC(=O)O)C(=O)N[C@@H](Cc1cccc2ccccc12)C(=O)N[C@@H](CC(C)C)C(=O)N[C@@H](CCCNC(=N)N)C(=O)N[C@@H](CCCCN)C(=O)N[C@@H](CC(C)C)C(=O)N[C@@H](CC(C)C)C(=O)N[C@@H](CCC(N)=O)C(=O)N[C@@H](CC(=O)O)C(=O)N[C@H](C(=O)N[C@@H](Cc1c[nH]cn1)C(=O)N[C@@H](CC(N)=O)C(=O)N[C@@H](Cc1ccccc1)C(N)=O)C(C)C)C(C)C [SEQ ID NO: 3, [Aib^1, Nle^8, β-Ala^17, hSer(OMe)^18,1-Nal^23, Leu^27] hPTH (1-34)-NH2] (H-[Aib]VSEIQL[Nle]HNLGKHLN[βAla][hSer](Me)ERVE[1Nal]LRKLLQDVHNF-NH2; N-terminus assumed) | 60 pM | 766 |  |  | 766 fold
CCCC[C@H](NC(=O)[C@H](CC(C)C)NC(=O)[C@H](CCC(N)=O)NC(=O)[C@@H](NC(=O)[C@H](CCC(=O)O)NC(=O)[C@H](CO)NC(=O)[C@@H](NC(=O)C(C)(C)N)C(C)C)[C@@H](C)CC)C(=O)N[C@@H](Cc1c[nH]cn1)C(=O)N[C@@H](CCC(=O)O)C(=O)N[C@@H](CC(C)C)C(=O)NCC(=O)N[C@@H](CCCCN)C(=O)N[C@@H](Cc1c[nH]cn1)C(=O)N[C@@H](CC(C)C)C(=O)N[C@@H](CCCCN)C(=O)N[C@@H](CO)C(=O)N[C@H](CC(=O)N[C@@H](CCC(=O)O)C(=O)N[C@@H](CCCNC(=N)N)C(=O)N[C@H](C(=O)N[C@@H](CCC(=O)O)C(=O)N[C@@H](Cc1cccc2ccccc12)C(=O)N[C@@H](CC(C)C)C(=O)N[C@@H](CCCNC(=N)N)C(=O)N[C@@H](CCCCN)C(=O)N[C@@H](CC(C)C)C(=O)N[C@@H](CC(C)C)C(=O)N[C@@H](CCC(N)=O)C(=O)N[C@@H](CCC(=O)O)C(=O)N[C@H](C(=O)N[C@@H](Cc1c[nH]cn1)C(=O)N[C@@H](CCC(=O)O)C(=O)N[C@@H](CCCCN)C(N)=O)C(C)C)C(C)C)[C@@H](C)CC [SEQ ID NO: 50, [Aib^1, Nle^8, Glu^10, Lys^16, β-hIle^18,1-Nal^23, Leu^27, Glu^30, Glu^33, Lys^34] hPTH(1-34)-NH2] (H-[Aib]VSEIQL[Nle]HELGKHLKS[β3hI]ERVE[1Nal]LRKLLQEVHEK-NH2; N-terminus assumed) | 40 pM | 22 |  |  | 
CCCC[C@H](NC(=O)[C@H](CC(C)C)NC(=O)[C@H](CCC(N)=O)NC(=O)[C@@H](NC(=O)[C@H](CCC(=O)O)NC(=O)[C@H](CO)NC(=O)[C@@H](NC(=O)[C@@H](N)CO)C(C)C)[C@@H](C)CC)C(=O)N[C@@H](Cc1c[nH]cn1)C(=O)N[C@@H](CC(N)=O)C(=O)N[C@@H](CC(C)C)C(=O)NCC(=O)N[C@@H](CCCCN)C(=O)N[C@@H](Cc1c[nH]cn1)C(=O)N[C@@H](CC(C)C)C(=O)N[C@@H](CC(N)=O)C(=O)N[C@@H](CO)C(=O)N[C@@H](CCCNC(=N)N)CC(=O)N[C@@H](CCC(=O)O)C(=O)N[C@@H](CCCNC(=N)N)C(=O)N[C@H](C(=O)N[C@@H](CCC(=O)O)C(=O)N[C@@H](Cc1ccc2ccccc2c1)C(=O)N[C@@H](CC(C)C)C(=O)N[C@@H](CCCNC(=N)N)C(=O)N[C@@H](CCCCN)C(=O)N[C@@H](CCCCN)C(=O)N[C@@H](CC(C)C)C(=O)N[C@@H](CCC(N)=O)C(=O)N[C@@H](CC(=O)O)C(=O)N[C@H](C(=O)N[C@@H](Cc1c[nH]cn1)C(=O)N[C@@H](CC(N)=O)C(=O)N[C@@H](Cc1ccccc1)C(N)=O)C(C)C)C(C)C [SEQ ID NO: 54, [Nle^8, β-hArg^18,2-Nal^23] hPTH (1-34)-NH2] (H-SVSEIQL[Nle]HNLGKHLNS[β3hR]ERVE[2Nal]LRKKLQDVHNF-NH2) |  |  |  | 147 | 
